{"source": "patent US11472844B2", "about": "“Peptidomimetics, method of synthesis and uses thereof” (priority 2017, dated 2022)", "key": {"human colonic mucus": {"system": "human colonic mucus", "test": "Fluorescent labelling of human colonic mucus layer", "type": "binding", "settings": "1 μg/mL; listed as MUB40#1-Cy5", "protocol": "Colon explant surgical collection. In summary, human colon segments (ascending, descending, and sigmoid colon) were obtained from fully informed patients undergoing surgery for colon carcinoma and were analyzed anonymously. Patient written consent was obtained, according to the French bioethics law. None of the patients had undergone radiotherapy or chemotherapy. According to the pathologist's examination rules for the longitudinally bisected colon, a healthy segment of tissue, which was distant from the tumor region and devoid of metastatic cells, was removed. Tissues were processed according to the French Government guidelines for research on human tissues and the French Bioethics Act with the authorization no RBM 2009-50.\nFixation and staining procedures. For microscopy studies, purified or cultured cells and polymerized lactoferrin were resuspended onto 24-well plates containing 12 mm coverslips in RMPI 1640+10 mM Hepes (when cultured in the autologous plasma) and centrifuged at 300×g for 10 min. Culture media were removed and cells were fixed in 4% Paraformaldehyde (PFA) for two hours. Fixed cells were washed three times in PBS+0.1% saponin (Sigma-Aldrich), prior immunolabeling with primary antibodies in the same buffer for 1 hour (Triton 0.1% can alternatively be used for cell permeabilization). After three additional washes in PBS+0.1% saponin, secondary antibodies and fluorescent markers were incubated for one hour. […]\nAntibodies, fluorescent markers. For immunofluorescence assay, lactoferrin was detected with a mouse anti-lactoferrin primary monoclonal antibody (Hycult biotech, clone 265-1K1, 1:50 dilution) and an anti-mouse-FITC conjugated secondary antibody (1:1000). Nuclei were detected with DAPI (Life Technologies), Lyophilized MUB40 peptides (MUB40#1 (SEQ ID NO: 3)-Cy5, MUB40#2 (SEQ ID NO: 4)-Cy5, MUB40#3 (SEQ ID NO: 5)-Cy5, MUB40#4 (SEQ ID NO: 6)-Cy5, MUB40#1 (SEQ ID NO: 3)-Dylight, RI-MUB40 (SEQ ID NO: 2)-Cy5, and RI-MUB40 (SEQ ID NO: 2)-Biotin) were solubilized in a phosphate buffer pH8 at a 1 mg/mL concentration and used at a 1:1000 dilution. […]"}, "[1]": {"system": "colonic mucus layer and infiltrated neutrophils", "test": "Human colonic explant infected with Shigella flexneri, two-photon microscopy", "settings": "1 μg/mL, after fixation and permeabilization", "description": "Ex vivo infection of human colonic tissue. Human colon explants were infected with S. flexneri 5a (M90T) pGFP, as described in (Nothelfer et al. 2014) and adapted from (Coron et al. 2009). Briefly, colonic tissues were cut into ˜5 cm^2 segments and pinned flat, with the submucosa facing down, onto a 4% agarose layer in tissue culture Petri dishes containing DMEM/F12 culture medium (Invitrogen) supplemented with 10% FBS, glutamine, and 2.1 g/L NaHCO3(Sigma-Aldrich). S. flexneri (M90T) 5a pGFP was added at ˜2×10^8 bacteria per cm^2 of tissue. Bacteria were allowed to settle for 15 min at room temperature before incubation at 37° C., 5% CO2 for 6 h on a slowly rocking tray. Tissue was fixed by overnight incubation with 4% PFA (Euromedex) and 0.1 M Hepes (Gibco) in PBS. For whole-mount staining, tissues were fixed on a 40×11-mm tissue culture dish (TPP) with Histoacryl tissue glue (Braun). To obtain 150-μm-thick sections, the tissue was embedded in low-melting agarose according to (Snippert et al. 2011) and cut with a vibratome (VT1000E; Leica).\nTwo-photons microscopy. […] MUB40-Cy5 was detected using multiphoton excitation (MPE, magenta), Acquisitions were performed with Zen 2008 SP 1.1 software acquisition package developed by ZEISS. […]"}, "[2]": {"system": "mouse circulating neutrophils", "test": "Labelling of fixed mouse neutrophils", "type": "cell-based", "protocol": "Polymorphonuclear neutrophils purification. Human polymorphonuclear neutrophils were purified as described previously (Monceaux et al. 2016). Briefly, plasma was removed by centrifugation (450×g, 15 min); blood cells were resuspended in 0.9% NaCl solution supplemented with 0.72% Dextran. After red blood cells sedimentation, white blood cells were pelleted and further separated on a two layer Percoll (GE Healthcare) (51%−42%) by centrifugation (at 240×g, 20 min). PBMC (top layer) were isolated from polymorphonuclear neutrophils (bottom layer). Red blood cells were removed from the latter fraction using CD235a (glycophorin) microbeads (negative selection) (Miltenyi Biotec). PBMCs and polymorphonuclear neutrophils were resuspended in the autologous plasma. Guinea pig and mouse polymorphonuclear neutrophils were purified with the same procedure."}}, "note": "Entries after “also recorded” stand apart in the source; their conditions may differ. *: point of attachment. X1 = CC[N+]1=C(/C=C/C=C/C=C2N(CCCCCC(=O)NCCN3C(=O)CC(*)C3=O)c3ccc(S(=O)(=O)O)cc3C2(C)C)C(C)(C)c2cc(S(=O)(=O)[O-])ccc21"}
{"substance": "Ac-C(X1)TAEGIKKFEGDGYELFKDNFPAGEKFDNDDTNDQFYTVIF-NH2 [Cy5-MUB40#1]", "values": [{"measurement": "labelling of / binding to human colonic mucus", "setting": "human colonic mucus", "result": "labelled; also recorded: conserved the ability to bind to and fluorescently label the human colonic mucus"}, {"measurement": "labelling of colonic mucus layer and infiltrated neutrophils", "setting": "[1]", "result": "labelled"}, {"measurement": "labelling of neutrophils", "setting": "[2]", "result": "efficiently labeled"}]}
